In ChEMBL document CHEMBL5729561, “Compounds and uses thereof” (2023):

Assay: On day 0 cells were seeded in 30 μL media into each well of 384-well cell culture plates. The seeding density was 8000 cells/well. On day 1, cells were treated with 30 nL DMSO or 30 nL of 3-fold serially DMSO-diluted compounds (10 points in duplicates with 1 μM as final top dose). Subsequently plates were incubated for 6 hours in a standard tissue culture incubator and equilibrated at room temperature for 15 minutes. Nanoluciferase activity was measured by adding 15 μL of freshly prepared Nano-Glo Luciferase Assay Reagent (Promega N1130), shaking the plates for 10 minutes and reading the bioluminescence using an EnVision reader.
Type: cell-based

Compound | IC50
COc1cc(-c2cn(C)c(=O)c3cnccc23)cc(OC)c1CN1CC2C1CCN2C(=O)CCOCCOc1ccc2c(c1)C(=O)N(C1CCC(=O)NC1=O)C2=O (stereo unspecified) | < 10 nM
COc1cc(-c2cn(C)c(=O)c3cnccc23)cc(OC)c1CN(C)CCc1cn(CCOc2ccc3c(c2)C(=O)N(C2CCC(=O)NC2=O)C3=O)nn1 (stereo unspecified) | in the range around 55 nM
COc1cc(-c2cn(C)c(=O)c3cnccc23)cc(OC)c1CN1CC(C(=O)N(C)CCCCCNc2cccc3c2C(=O)N(C2CCC(=O)NC2=O)C3=O)C1 (stereo unspecified) | < 10 nM
COc1cc(-c2cn(C)c(=O)c3cnccc23)cc(OC)c1CN(C)C12CC(NC(=O)CCCCCOc3cccc4c3C(=O)N(C3CCC(=O)NC3=O)C4=O)(C1)C2 (stereo unspecified) | < 10 nM
COc1cc(-c2cn(C)c(=O)c3cnccc23)cc(OC)c1CN(C)CC1CC12CCN(C(=O)CCOCCOc1ccc3c(c1)C(=O)N(C1CCC(=O)NC1=O)C3=O)CC2 (stereo unspecified) | in the range around 55 nM
COc1cc(-c2cn(C)c(=O)c3cnccc23)cc(OC)c1CN(C)CC1CC2(CCN(C(=O)CCOCCOc3cccc4c3C(=O)N(C3CCC(=O)NC3=O)C4=O)CC2)CO1 (stereo unspecified) | in the range around 55 nM
COc1cc(-c2cn(C)c(=O)c3cnccc23)cc(OC)c1CN1CCN(C(=O)CCCCOc2cccc3c2C(=O)N(C2CCC(=O)NC2=O)C3=O)CC1 (stereo unspecified) | < 10 nM
COc1cc(-c2cn(C)c(=O)c3cnccc23)cc(OC)c1CN1CCC2CCN(C(=O)CCOCCOc3ccc4c(c3)C(=O)N(C3CCC(=O)NC3=O)C4=O)CC21 (stereo unspecified) | < 10 nM
COc1cc(-c2cn(C)c(=O)c3cnccc23)cc(OC)c1CN1CC(OCc2cn(CCCCCOc3ccc4c(c3)C(=O)N(C3CCC(=O)NC3=O)C4=O)nn2)C1 (stereo unspecified) | in the range around 55 nM
COc1cc(-c2cn(C)c(=O)c3cnccc23)cc(OC)c1CNCCOCC(=O)N1CC(COc2ccc3c(c2)C(=O)N(C2CCC(=O)NC2=O)C3=O)C1 (stereo unspecified) | in the range around 550 nM
COc1cc(-c2cn(C)c(=O)c3cnccc23)cc(OC)c1CN1CCCC(OCc2cn(CCCOc3ccc4c(c3)C(=O)N(C3CCC(=O)NC3=O)C4=O)nn2)C1 (stereo unspecified) | in the range around 55 nM
COc1cc(-c2cn(C)c(=O)c3cnccc23)cc(OC)c1CN(C)CC1CC12CCN(C(=O)CCOCCOc1cccc3c1C(=O)N(C1CCC(=O)NC1=O)C3=O)CC2 (stereo unspecified) | in the range around 55 nM
COc1cc(-c2cn(C)c(=O)c3cnccc23)cc(OC)c1CN1CC2(CCC2NC(=O)CCOCCOc2ccc3c(c2)C(=O)N(C2CCC(=O)NC2=O)C3=O)C1 (stereo unspecified) | in the range around 550 nM
COc1cc(-c2cn(C)c(=O)c3cnccc23)cc(OC)c1CN1CC(S(=O)(=O)NCCCCNc2ccc3c(c2)C(=O)N(C2CCC(=O)NC2=O)C3=O)C1 (stereo unspecified) | in the range around 55 nM
COc1cc(-c2cn(C)c(=O)c3cnccc23)cc(OC)c1CN1CCC(OCc2cn(CCCCOc3ccc4c(c3)C(=O)N(C3CCC(=O)NC3=O)C4=O)nn2)CC1 (stereo unspecified) | in the range around 55 nM
COc1cc(-c2cn(C)c(=O)c3cnccc23)cc(OC)c1CN1CC2(C1)CN(C(=O)CCCCOc1cccc3c1C(=O)N(C1CCC(=O)NC1=O)C3=O)C2 (stereo unspecified) | < 10 nM
COc1cc(-c2cn(C)c(=O)c3cnccc23)cc(OC)c1CN1CCN(C(=O)CCCOc2cccc3c2C(=O)N(C2CCC(=O)NC2=O)C3=O)CC1 (stereo unspecified) | < 10 nM
COc1cc(-c2cn(C)c(=O)c3cnccc23)cc(OC)c1CN1CCC2(C[C@H]2NC(=O)CCOCCOc2cccc3c2C(=O)N(C2CCC(=O)NC2=O)C3=O)C1 (stereo partly specified) | in the range around 55 nM
COc1cc(-c2cn(C)c(=O)c3cnccc23)cc(OC)c1CN1CCCC(OCc2cn(CCCCOc3ccc4c(c3)C(=O)N(C3CCC(=O)NC3=O)C4=O)nn2)C1 (stereo unspecified) | in the range around 55 nM
COc1cc(-c2cn(C)c(=O)c3cnccc23)cc(OC)c1CN1CCC(OCc2cn(CCOc3ccc4c(c3)C(=O)N(C3CCC(=O)NC3=O)C4=O)nn2)CC1 (stereo unspecified) | in the range around 55 nM
COc1cc(-c2cn(C)c(=O)c3cnccc23)cc(OC)c1CN1CC(C(=O)NCCS(=O)(=O)CCNc2cccc3c2C(=O)N(C2CCC(=O)NC2=O)C3=O)C1 (stereo unspecified) | in the range around 55 nM
